In article PMC7904550, “Application of grouping and read-across for the evaluation of parabens of different chain lengths with a particular focus on endocrine properties” (Archives of Toxicology, 2021):

Assays:
Wistar rats [1] = test: Prenatal developmental toxicity study (OECD TG 414); assay type: in vivo, rat; settings: for NOAEL, developmental toxicity: OECD 414 v 2001, oral gavage
Description: (§1) Healthy and specific pathogen-free male and female (non-pregnant and nulliparous) Wistar Crl: WI(Han) rats were obtained from Charles River Laboratories (Germany). […] Upon arrival at BSL BIOSERVICE, the animals underwent an acclimatisation period of at least 5 days, and they were approximately 15–16 weeks old at the onset of the treatment period.

rats [2] = settings: rat, in vivo; cited from earlier work
rats [3] = settings: rat, in vivo; cited from earlier work; remark: listed apart in the source
Wistar rats [4] = test: Extended one-generation reproductive toxicity study (OECD TG 443); assay type: in vivo, rat; settings: for NOAEL, EOGRTS: developmental and reproductive toxicity: OECD 443 v 2018, oral gavage
Description: as §1

rats [5] = settings: key studies Gazin et al. 2013, Pouliot 2013; ref SCCS 2013; EMA 2015; cited from earlier work

SMILES: CCCOC(=O)c1ccc(O)cc1 [Propyl paraben, Propyl 4-hydroxybenzoate]
- NOAEL, developmental toxicity (Wistar rats [1]): NOAEL: 1000 (OECD 414; v 2001) mg/kg body weight/day
- NOAEL, developmental toxicity (Wistar rats [1]; listed as propyl paraben): 1000 mg/kg body weight/day
- Gestation length (Wistar rats [1]; OECD TG 414): n.a. / NAE
- NOAEL: No. of foetal deaths; viable foetuses (Wistar rats [1]; OECD TG 414): 1000 mg/kg bw/day
- No. of implantations, corpora lutea (Wistar rats [1]; OECD TG 414): NAE / NAE
- No. of live births (Wistar rats [1]; OECD TG 414): NAE / NAE
- Postimplantation loss (Wistar rats [1]; OECD TG 414): NAE / NAE
- Pre-implantation loss (Wistar rats [1]; OECD TG 414): NAE / NAE
- Uterus weight (with cervix) (Wistar rats [1]; OECD TG 414): NAE / NAE
- Thyroid HP (Wistar rats [1]; dams): NAE / NAE (dams)
- Thyroid stimulating hormone level (Wistar rats [1]; dams): NAE / NAE (dams)
- Thyroid weight (Wistar rats [1]; dams): NAE / NAE (dams)
- Triiodothyronine / thyroxine level (Wistar rats [1]; dams): NAE / NAE (dams)
- Anogenital distance (Wistar rats [1]; foetus): NAE / NAE
- Foetal development (Wistar rats [1]; foetus): NAE / NAE
- Litter size (Wistar rats [1]; foetus): NAE / NAE
- No. of foetal deaths; viable foetuses (Wistar rats [1]; foetus): NAE / NAE
- Presence of anomalies (external, visceral, skeletal) (Wistar rats [1]; foetus): NAE / NAE
- Treatment-related effects in dams or pups (Wistar rats [1]; implantation throughout pregnancy): No treatment-related effects
- Eye irritation/eye corrosion classification (rats [2]): Not irritating [c] (OECD 437 and 405; 2012)
- Skin irritation/skin corrosion classification (rats [3]): Not irritating (read-across)
- Developmental immunotoxicity (DIT) (Wistar rats [4]; DIT cohort): did not exhibit
- Developmental neurotoxicity (DNT) (Wistar rats [4]; DNT cohort): did not exhibit DNT
- NOAEL, EOGRTS: developmental and reproductive toxicity (Wistar rats [4]): NOAEL: 1000 (OECD 443; v 2018) mg/kg body weight/day
- NOAEL, EOGRTS: developmental and reproductive toxicity (Wistar rats [4]; listed as propyl paraben): 1000 mg/kg body weight/day
- Accessory sex organs HP (Wistar rats [4]; P0, F1, (F2)): NAE / NAE
- Adrenals HP (Wistar rats [4]; P0, F1, (F2)): NAE / NAE
- Adrenals weight (Wistar rats [4]; P0, F1, (F2)): NAE / NAE
- Age at balano-preputial separation (Wistar rats [4]; P0, F1, (F2)): NAE / NAE
- Age at vaginal opening (Wistar rats [4]; P0, F1, (F2)): NAE / NAE
- Anogenital distance (Wistar rats [4]; P0, F1, (F2)): NAE / NAE
- Auditory startle (Wistar rats [4]; P0, F1, (F2)): NAE / NAE
- Brain HP (Wistar rats [4]; P0, F1, (F2)): NAE / NAE
- Brain morphometric evaluation (Wistar rats [4]; P0, F1, (F2)): NAE / NAE
- Brain weight (Wistar rats [4]; P0, F1, (F2)): NAE / NAE
- Cervix HP (Wistar rats [4]; P0, F1, (F2)): NAE / NAE
- Coagulating gland HP (Wistar rats [4]; P0, F1, (F2)): NAE / NAE
- Coagulating gland weight (Wistar rats [4]; P0, F1, (F2)): NAE / NAE
- Colloid area (thyroid HP) (Wistar rats [4]; P0, F1, (F2)): NAE / NAE
- Dystocia (Wistar rats [4]; P0, F1, (F2)): NAE / NAE
- Epididymis HP (Wistar rats [4]; P0, F1, (F2)): NAE / NAE
- Epididymis weight (Wistar rats [4]; P0, F1, (F2)): NAE / NAE
- Fertility (Wistar rats [4]; P0, F1, (F2)): NAE / NAE
- Foetal development (Wistar rats [4]; P0, F1, (F2)): NAE / NAE
- Functional observation battery (Wistar rats [4]; P0, F1, (F2)): NAE [h] / NAE
- Gestation length (Wistar rats [4]; P0, F1, (F2)): NAE / NAE
- Litter size (Wistar rats [4]; P0, F1, (F2)): NAE / NAE
- Litter viability (Wistar rats [4]; P0, F1, (F2)): NAE / NAE
- Liver weight (Wistar rats [4]; P0, F1, (F2)): NAE / NAE
- Mammary gland HP; females (Wistar rats [4]; P0, F1, (F2)): NAE / NAE
- Mammary gland HP; males (Wistar rats [4]; P0, F1, (F2)): NAE / NAE
- Motor activity (Wistar rats [4]; P0, F1, (F2)): NAE / NAE
- Nipple development (Wistar rats [4]; P0, F1, (F2)): NAE / NAE
- No. of implantations, corpora lutea (Wistar rats [4]; P0, F1, (F2)): NAE / NAE
- No. of live births (Wistar rats [4]; P0, F1, (F2)): NAE / NAE
- No. of ovarian follicles (Wistar rats [4]; P0, F1, (F2)): NAE / NAE
- Oestrus cyclicity (Wistar rats [4]; P0, F1, (F2)): NAE / NAE
- Offspring: learning & memory (Wistar rats [4]; P0, F1, (F2)): NAE / NAE
- Ovary HP (Wistar rats [4]; P0, F1, (F2)): NAE / NAE
- Ovary weight (Wistar rats [4]; P0, F1, (F2)): NAE / NAE
- Oviduct HP (Wistar rats [4]; P0, F1, (F2)): NAE / NAE
- Pituitary HP (Wistar rats [4]; P0, F1, (F2)): NAE / NAE
- Pituitary weight (Wistar rats [4]; P0, F1, (F2)): NAE / NAE
- Postimplantation loss (Wistar rats [4]; P0, F1, (F2)): NAE / NAE
- Presence of anomalies (external, visceral, skeletal) (Wistar rats [4]; P0, F1, (F2)): NAE / NAE
- Prostate HP (Wistar rats [4]; P0, F1, (F2)): NAE / NAE
- Prostate weight (Wistar rats [4]; P0, F1, (F2)): NAE / NAE
- Pup development (Wistar rats [4]; P0, F1, (F2)): NAE / NAE
- Reproduction (Wistar rats [4]; P0, F1, (F2)): NAE / NAE
- Seminal vesicles HP (Wistar rats [4]; P0, F1, (F2)): NAE / NAE
- Seminal vesicles weight (Wistar rats [4]; P0, F1, (F2)): NAE / NAE
- Sperm morphology (Wistar rats [4]; P0, F1, (F2)): NAE / NAE
- Sperm motility (Wistar rats [4]; P0, F1, (F2)): NAE / NAE
- Sperm numbers (Wistar rats [4]; P0, F1, (F2)): NAE / NAE
- Testis HP (Wistar rats [4]; P0, F1, (F2)): NAE / NAE
- Testis weight (Wistar rats [4]; P0, F1, (F2)): NAE / NAE
- Thyroid HP (Wistar rats [4]; P0, F1, (F2)): NAE / NAE
- Thyroid stimulating hormone level (Wistar rats [4]; P0, F1, (F2)): NAE / NAE
- Thyroid weight (Wistar rats [4]; P0, F1, (F2)): NAE / NAE
- Time to mating (Wistar rats [4]; P0, F1, (F2)): NAE / NAE
- Triiodothyronine / thyroxine level (Wistar rats [4]; P0, F1, (F2)): NAE / NAE
- Uterus HP (with cervix) (Wistar rats [4]; P0, F1, (F2)): NAE / NAE
- Uterus weight (with cervix) (Wistar rats [4]; P0, F1, (F2)): NAE / NAE
- Vagina HP (Wistar rats [4]; P0, F1, (F2)): NAE / NAE
- Vaginal smears (Wistar rats [4]; P0, F1, (F2)): NAE / NAE
- Anogenital distance, female pups PND 0 (Wistar rats [4]; all dose groups, within historical control, assessed as not toxicologically relevant): minimal lower absolute and relative anogenital distance
- Clinical biochemistry parameters (Wistar rats [4]; parental animals, assessed as not toxicologically relevant): few marginal but statistically significant differences
- Thyroid stimulating hormone (Wistar rats [4]; parental females (and F1 males) of high dose group, assessed as not toxicologically relevant): slight but statistically significantly higher group mean thyroid stimulating hormone values
- Alterations of the parameters addressed in OECD TG 443 (Wistar rats [4]; up to 1000 mg/kg bw/day): no toxicologically relevant alterations
- Local reactions after gavage (Wistar rats [4]; without toxicological relevance): Transient increased salivation
- NOAEL (rats [5]): 1000 mg/kg bw/day
